From US20040014143A1, “Method and apparatus for detecting and monitoring peptides, and peptides identified therewith” (priority 2002, published 2004)
Read-outs that look alike come from different tables or passages of the source.

Tests used:
GABA production = conditions: previous microdialysis studies; cited from earlier work
opioid receptors = experiment: Receptor assays probing binding to opioid receptors; conditions: data not shown
[1] = tested on: neurotransmitter levels (aspartate, GABA, glutamate); conditions: infusion of 10 μM peptide into the dialysis probe, n=2

| Molecule | effect on GABA production (GABA production) | glutamate levels (GABA production) | binding to opioid receptors (opioid receptors) | GABA level (change in words) [1] | aspartate level (change in words) [1] | glutamate levels (change in words) [1] | GABA level (change in words) ([1]; listed as I11lo peptide) | aspartate level (change in words) ([1]; listed as I11lo peptide) |
| --- | --- | --- | --- | --- | --- | --- | --- | --- |
| CN1CCc2cccc3c2[C@H]1Cc1ccc(O)c(O)c1-3 [apomorphine] | stimulates GABA production | remain the same | – | – | – | – | – | – |
| SPQLEDEAKE (listed as Rattus norvegicus) [peptide I1-10] | – | – | negative | increase | increase | remained the same | increases | increases |
| YGGFL [Leu-enkephalin] | inhibits nicotine-stimulated GABA production | – | – | – | – | – | – | – |
